US20150057447A1, “METHOD OF PRODUCING N-PHENYL-N'-PHENYLSULFONYL PIPERAZINE DERIVATIVE AND INTERMEDIATE THEREOF” (priority 2012, published 2015)

Assays:
Format in all cases: physicochemical
[1] = Evaluation of hygroscopicity by measuring moisture adsorption-desorption isotherm; settings: 25° C.; for ratio of mass increase, moisture desorption isotherm: 0% RH; for ratio of mass increase relative to the mass at 0% RH, moisture adsorption isotherm: 95% RH
Description: Moisture adsorption-desorption isotherm is one of means for measuring the adsorption or desorption of moisture. It is a method of measuring the mass change as a function of the relative humidity at constant temperature, and under the conditions where adsorption or desorption is essentially occurring independently of time (equilibrium conditions). Moisture adsorption-desorption isotherm is obtained by plotting relative humidities versus the ratio(%) of the mass increase compared to the mass when the relative humidity of 0%. Accordingly, it is possible to obtain the information about hygroscopicity or dehumidifying nature of the sample.
Moisture adsorption-desorption isotherm of the compounds specified in following (1) to (4) obtained from corresponding examples were measured by the following conditions.
(Operating Method) About 50 mg of the sample was weighted in the mesh stainless-steel sample container, then it was dried at the relative humidity (hereinafter, RH) 0% until the mass change doesn't happen in the device. Temperature and humidity were controlled by the following conditions, and dynamic gravimetric measurement was conducted. Measurement temperature: 25° C. Measurement humidity range: adsorption 0˜95% RH, desorption 95˜0% RH, 5% RH interval Measurement condition: Isotherm condition Herein, isotherm condition means that measurement is move on to next humidity point when the mass change is no longer observed after minimum waiting time or when the equilibrium of mass was not observed until maximum waiting time under constant humidity. The minimum waiting time for equilibrium determination at each humidity: 10 minutes The maximum waiting time for equilibrium determination at each humidity: 2 hours Humidity control: nitrogen and humidification device, 250 mL/minutes (1) Result of the moisture adsorption-desorption isotherm for magnesium bis[5-chloro-2-(1,3-oxazole-2-yl)phenolate] In measuring the moisture adsorption isotherm, in the case of 95% RH, the ratio of mass increase was 2% relative to the mass at 0% RH. In measuring the moisture desorption isotherm, in the case of 0% RH, the ratio of mass increase was 0%. (2) Result of the moisture adsorption-desorption isotherm for calcium bis[5-chloro-2-(1,3-oxazole-2-yl)phenolate] In measuring the moisture adsorption isotherm, in the case of 95% RH, the ratio of mass increase was 3% relative to the mass at 0% RH. In measuring the moisture desorption isotherm, in the case of 0% RH, the ratio of mass increase was 0%.

[2] = Evaluation of sublimation by measuring TG/DTA; settings: for sublimation (conclusion from TG/DTA): open system
Description: Evaluation of Sublimation by Measuring TG/DTA
(1) 5-Chloro-2-(1,3-oxazole-2-yl)phenol (I-3, 5 mg) which was obtained from the method described in Patent Document 6 was measured, and an aluminum pan was stuffed with it and measured in the open system. The measurement conditions are as follows.
Device: TG/DTA 7200 by SII nano technology Measurement temperature range: 30° C.-200° C. Heating rate: 10° C./minute Purge gas: N2 200 mL/minute
(2) 5-Chloro-2-(1,3-oxazole-2-yl)phenol (I-3, about 10 mg) which was obtained from the method described in Patent Document 6 was measured, and an aluminum pan was stuffed with it and measured in the open system. The measurement conditions are as follows.
Device: TG/DTA 7200 by SII nano technology Measurement temperature, range: 40° C. Measurement time: 720 minutes Purge gas: N2 200 mL/minute
(3) Magnesium bis[5-chloro-2-(1,3-oxazole-2-yl)phenolate (I-2, 5 m g) which was obtained from Example 1(1) was measured, and an aluminum pan was stuffed with it and measured in the open system. The measurement conditions are as follows.
Device: TG/DTA 7200 by SII nano technology Measurement temperature program: 30° C.-200° C. Rate of temperature increase: 10° C./minute Purge gas: N2 200 mL/minute

[3] = Evaluation of sublimation (heating under reduced pressure, flask with condenser tube)
Description: 5-Chloro-2-(1,3-oxazole-2-yl)phenol (I-3, 3.01 g, 15.4 mmol) which was obtained from the method described in Patent Document 6 was measured in a round-bottomed flask with condenser tube filled with −15° C. cooling liquid, and heated at 40° C. for 6 hours under the reduced pressure (16˜18 mmHg). After 6 hours, 0.02 g of colorless solids were adhered to the condenser tube. The colorless solids were measured by ^1H-NMR (DMSO-d6), it was confirmed to be 5-chloro-2-(1,3-oxazole-2-yl)phenol (I-3).

Compound: magnesium bis[5-chloro-2-(1,3-oxazole-2-yl)phenolate] [Compound I-2]
- ratio of mass increase, moisture desorption isotherm [1]: 0%
- ratio of mass increase relative to the mass at 0% RH, moisture adsorption isotherm [1]: 2%
- sublimation (conclusion from TG/DTA) [2]: doesn't have sublimation
- melting and weight loss (TG/DTA) ([2]; about 30° C.-about 180° C., program 30° C.-200° C., 10° C./minute, N2 200 mL/minute): not observed

Compound: Oc1cc(Cl)ccc1-c1ncco1 [Compound I-3, 5-chloro-2-(1,3-oxazole-2-yl)phenol]
- colorless solids adhered to the condenser tube ([3]; 3.01 g heated at 40° C. for 6 hours under reduced pressure (16~18 mmHg), condenser at -15° C.): 0.02 g
- sublimation (conclusion from reduced pressure heating test) ([3]; 40° C., 6 hours, 16~18 mmHg): has sublimation
- weight loss (TG/DTA, constant temperature) ([2]; 40° C., 720 minutes, solid state, open aluminum pan, N2 200 mL/minute): 1.6%
- sublimation (conclusion from TG/DTA) [2]: has sublimation
- weight loss (TG/DTA) ([2]; observed at 40-85° C., range 30° C.-200° C., heating rate 10° C./minute, open aluminum pan, N2 200 mL/minute): 0.38%

Compound: calcium bis[5-chloro-2-(1,3-oxazole-2-yl)phenolate] [Compound I-7]
- ratio of mass increase, moisture desorption isotherm [1]: 0%
- ratio of mass increase relative to the mass at 0% RH, moisture adsorption isotherm [1]: 3%
